Test results reported in patent US12077503B2, “Substituted cyclic amides and their use as herbicides” (FMC CORPORATION, priority 2015, dated 2024).

Legend:
Assay type in all cases: in vivo
Kochia (Kochia scoparia) [1] = experiment: Test A preemergence; conditions: for Kochia plant response rating (0 to 100 scale, 0 is no effect, 100 is complete control): visual injury rating after approximately 10 d
Outline: (§1)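 Seeded soil received test chemicals as a preemergence directed spray, and seedlings at one to two leaves, 2–10 cm tall, received them postemergence, in a non-phytotoxic, surfactant-containing solvent mixture. Pots were held in a greenhouse for approximately 10 d, then rated for injury from 0, no effect, to 100, complete control.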

[2] = tested on: barnyardgrass (Echinochloa crus-galli); experiment: Test A preemergence; conditions: for Barnyardgrass plant response rating (0 to 100 scale, 0 is no effect, 100 is complete control): visual injury rating after approximately 10 d
Outline: as §1

[3] = tested on: giant foxtail (Setaria faberii); experiment: Test A preemergence
Outline: as §1

[4] = tested on: pigweed (Amaranthus retroflexus); experiment: Test A preemergence; conditions: for Pigweed plant response rating (0 to 100 scale, 0 is no effect, 100 is complete control): visual injury rating after approximately 10 d
[5] = tested on: ragweed (common ragweed, Ambrosia elatior); experiment: Test A preemergence; conditions: for Ragweed plant response rating (0 to 100 scale, 0 is no effect, 100 is complete control): visual injury rating after approximately 10 d; for Ragweed plant response rating: visual injury rating about 10 d after treatment
Outline: as §1

[6] = tested on: ryegrass, Italian (Italian ryegrass, Lolium multiflorum); experiment: Test A preemergence
Outline: as §1

[7] = tested on: Galium (catchweed bedstraw, Galium aparine); experiment: Test A postemergence
Outline: as §1

Kochia (Kochia scoparia) [8] = experiment: Test A postemergence
Outline: as §1

[9] = tested on: barnyardgrass (Echinochloa crus-galli); experiment: Test A postemergence
Outline: as §1

[10] = tested on: blackgrass (Alopecurus myosuroides); experiment: Test A postemergence
Outline: as §1

corn (Zea mays) = experiment: Test A postemergence
Outline: as §1

[11] = tested on: giant foxtail (Setaria faberii); experiment: Test A postemergence
Outline: as §1

[12] = tested on: pigweed (Amaranthus retroflexus); experiment: Test A postemergence
Outline: as §1

[13] = tested on: ragweed (common ragweed, Ambrosia elatior); experiment: Test A postemergence
Outline: as §1

[14] = tested on: ryegrass, Italian (Italian ryegrass, Lolium multiflorum); experiment: Test A postemergence
Outline: as §1

[15] = tested on: wheat (Triticum aestivum); experiment: Test A postemergence
Outline: as §1

[16] = tested on: barnyardgrass (Echinochloa crus-galli); experiment: Test B flooded paddy test; conditions: Flood, 250 g ai/ha
Outline: (§2)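 2-leaf plants; pots flooded 3 cm over soil; cpd added to paddy water; depth held; greenhouse 13–15 d; visual rating vs controls, 0 = no effect, 100 = complete control.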

[17] = tested on: ducksalad (Heteranthera limosa); experiment: Test B flooded paddy test; conditions: Flood, 250 g ai/ha; for Ducksalad plant response rating: scale of 0 to 100 where 0 is no effect and 100 is complete control
Outline: as §2

rice (Oryra sativa) = experiment: Test B flooded paddy test; conditions: Flood, 250 g ai/ha
Outline: as §2

[18] = tested on: sedge, umbrella (small-flower umbrella sedge, Cyperus difformis); experiment: Test B flooded paddy test; conditions: 250 g ai/ha, Flood, 0 to 100 scale where 0 is no effect and 100 is complete control
Outline: as §2

[19] = 500 g ai/ha, preemergence, 0 to 100 scale (0 no effect, 100 complete control)
[20] = 125 g ai/ha, Postemergence, visual injury after approximately 10 d, 0 to 100 scale where 0 is no effect and 100 is complete control
[21] = 500 g ai/ha, preemergence, visual injury rating about 10 d after treatment, 0 to 100 scale (0 no effect, 100 complete control)
[22] = 125 g ai/ha, Preemergence, visual injury rating after approximately 10 d
[23] = scale of 0 to 100 where 0 is no effect and 100 is complete control
[24] = 125 g ai/ha, preemergence, 0 to 100 scale (0 no effect, 100 complete control)
[25] = Preemergence, 500 g ai/ha, 0 is no effect, 100 is complete control
[26] = 500 g ai/ha, postemergence, 0 to 100 scale, 0 no effect, 100 complete control
[27] = Postemergence, 125 g ai/ha, visual injury, 0 to 100 scale (0 no effect, 100 complete control), approx. 10 d
[28] = 0 to 100 scale where 0 is no effect and 100 is complete control, 13 to 15 d

Cc1ccc([C@H]2CN(C)C(=O)[C@@H]2C(=O)Nc2ccccc2[S+](C)[O-])cc1F (single isomer, unassigned) [Compound 987]
Kochia plant response rating (0 to 100 scale, 0 is no effect, 100 is complete control) (Kochia (Kochia scoparia) [1]; 125 g ai/ha, Preemergence): 0
pest or weed control at 500 g/ha (Kochia (Kochia scoparia) [1]; Bassia scoparia, pre-emergence, 240 h, 500 g ai/ha, preemergence, visual injury rating about 10 d after treatment, 0 to 100 scale (0 no effect, 100 complete control), read-out: Kochia plant response rating): 60%
Barnyardgrass plant response rating (0 to 100 scale, 0 is no effect, 100 is complete control) ([2]; 125 g ai/ha, Preemergence): 60
pest or weed control at 500 g/ha ([2]; Echinochloa crus-galli, pre-emergence, 240 h, 500 g ai/ha, preemergence, visual injury rating about 10 d after treatment, 0 to 100 scale (0 no effect, 100 complete control), read-out: Barnyardgrass plant response rating): 90%
pest or weed control at 125 g/ha ([3]; Setaria faberi, pre-emergence, 240 h, 125 g ai/ha, Preemergence, visual injury rating after approximately 10 d, read-out: Foxtail, Giant plant response rating (0 to 100 scale, 0 is no effect, 100 is complete control)): 90%
pest or weed control at 500 g/ha ([3]; Setaria faberi, pre-emergence, 240 h, 500 g ai/ha, preemergence, visual injury rating about 10 d after treatment, 0 to 100 scale (0 no effect, 100 complete control), read-out: Foxtail, Giant plant response rating): 90%
Pigweed plant response rating (0 to 100 scale, 0 is no effect, 100 is complete control) ([4]; 125 g ai/ha, Preemergence): 0
pest or weed control at 500 g/ha ([4]; Amaranthus retroflexus, pre-emergence, 240 h, 500 g ai/ha, preemergence, visual injury rating about 10 d after treatment, 0 to 100 scale (0 no effect, 100 complete control), read-out: Pigweed plant response rating): 20%
Ragweed plant response rating (0 to 100 scale, 0 is no effect, 100 is complete control) ([5]; 125 g ai/ha, Preemergence): 0
Ragweed plant response rating [5, 19]: 0
pest or weed control at 125 g/ha ([6]; Lolium multiflorum, pre-emergence, 240 h, 125 g ai/ha, Preemergence, visual injury rating after approximately 10 d, read-out: Ryegrass, Italian plant response rating (0 to 100 scale, 0 is no effect, 100 is complete control)): 0%
pest or weed control at 500 g/ha ([6]; Lolium multiflorum, pre-emergence, 240 h, 500 g ai/ha, preemergence, visual injury rating about 10 d after treatment, 0 to 100 scale (0 no effect, 100 complete control), read-out: Ryegrass, Italian plant response rating): 40%
pest or weed control at 125 g/ha ([7]; Galium, post-emergence, 240 h, 125 g ai/ha, Postemergence, visual injury after approximately 10 d, 0 to 100 scale where 0 is no effect and 100 is complete control, read-out: Plant response rating, Galium): 40%
Plant response rating, Kochia (Kochia (Kochia scoparia) [8]; [20]): 0
pest or weed control at 125 g/ha ([9]; Echinochloa crus-galli, post-emergence, 240 h, 125 g ai/ha, Postemergence, visual injury after approximately 10 d, 0 to 100 scale where 0 is no effect and 100 is complete control, read-out: Plant response rating, Barnyardgrass): 80%
Plant response rating, Blackgrass [10, 20]: 0
Plant response rating, Corn (corn (Zea mays); [20]): 0
pest or weed control at 125 g/ha ([11]; Setaria faberi, post-emergence, 240 h, 125 g ai/ha, Postemergence, visual injury after approximately 10 d, 0 to 100 scale where 0 is no effect and 100 is complete control, read-out: Plant response rating, Foxtail, Giant): 60%
pest or weed control at 125 g/ha ([12]; Amaranthus retroflexus, post-emergence, 240 h, 125 g ai/ha, Postemergence, visual injury after approximately 10 d, 0 to 100 scale where 0 is no effect and 100 is complete control, read-out: Plant response rating, Pigweed): 0%
pest or weed control at 125 g/ha ([13]; Ambrosia artemisiifolia, post-emergence, 240 h, 125 g ai/ha, Postemergence, visual injury after approximately 10 d, 0 to 100 scale where 0 is no effect and 100 is complete control, read-out: Plant response rating, Ragweed): 0%
Plant response rating, Ryegrass, Italian [14, 20]: 0
Plant response rating, Wheat [15, 20]: 0
pest or weed control at 250 g/ha ([16]; Echinochloa crus-galli, scale of 0 to 100 where 0 is no effect and 100 is complete control, read-out: Barnyardgrass plant response rating): 90%
Ducksalad plant response rating [17]: 75
pest or weed control at 250 g/ha (rice (Oryra sativa); Oryza sativa, scale of 0 to 100 where 0 is no effect and 100 is complete control, read-out: Rice plant response rating): 35%
pest or weed control at 250 g/ha ([18]; Cyperus difformis, read-out: Sedge, Umbrella plant response rating): 0%

Cc1c(F)cccc1NC(=O)[C@H]1C(=O)NC[C@@H]1c1ccc2c(c1)OCO2 (stereo in doubt) [Compound 989]
Kochia plant response rating (0 to 100 scale, 0 is no effect, 100 is complete control) (Kochia (Kochia scoparia) [1]; 125 g ai/ha, Preemergence): 0
Kochia plant response rating (Kochia (Kochia scoparia) [1]; [21]): 90
Barnyardgrass plant response rating (0 to 100 scale, 0 is no effect, 100 is complete control) ([2]; 125 g ai/ha, Preemergence): 70
Barnyardgrass plant response rating [2, 21]: 90
Foxtail, Giant plant response rating (0 to 100 scale, 0 is no effect, 100 is complete control) [3, 22]: 70
Foxtail, Giant plant response rating [3, 21]: 90
Pigweed plant response rating (0 to 100 scale, 0 is no effect, 100 is complete control) ([4]; 125 g ai/ha, Preemergence): 0
Pigweed plant response rating [4, 21]: 0
Ragweed plant response rating (0 to 100 scale, 0 is no effect, 100 is complete control) ([5]; 125 g ai/ha, Preemergence): 0
Ragweed plant response rating [5, 19]: 40
Ryegrass, Italian plant response rating (0 to 100 scale, 0 is no effect, 100 is complete control) [6, 22]: 0
Ryegrass, Italian plant response rating [6, 21]: 0
Plant response rating, Galium [7, 20]: 20
Plant response rating, Kochia (Kochia (Kochia scoparia) [8]; [20]): 0
Plant response rating, Barnyardgrass [9, 20]: 80
Plant response rating, Blackgrass [10, 20]: 0
Plant response rating, Corn (corn (Zea mays); [20]): 0
Plant response rating, Foxtail, Giant [11, 20]: 50
Plant response rating, Pigweed [12, 20]: 0
Plant response rating, Ragweed [13, 20]: 0
Plant response rating, Ryegrass, Italian [14, 20]: 0
Plant response rating, Wheat [15, 20]: 0
Barnyardgrass plant response rating [16, 23]: 15
Ducksalad plant response rating [17]: 100
Rice plant response rating (rice (Oryra sativa); [23]): 0
Sedge, Umbrella plant response rating [18]: 0

CC(C)Oc1cccc(C2CN(C)C(=O)C2C(=O)Nc2ccc(F)cc2F)c1 (stereo not shown) [Compound 378]
Plant response rating, Kochia (Kochia (Kochia scoparia) [1]; [24]): 80
Kochia plant response rating (0 to 100 scale) (Kochia (Kochia scoparia) [1]; [25]): 90
Plant response rating, Barnyardgrass [2, 24]: 20
Barnyardgrass plant response rating (0 to 100 scale) [2, 25]: 90
Plant response rating, Foxtail, Giant [3, 24]: 90
Foxtail, Giant plant response rating (0 to 100 scale) [3, 25]: 100
Plant response rating, Pigweed [4, 24]: 60
Pigweed plant response rating (0 to 100 scale) [4, 25]: 80
Plant response rating, Ragweed [5, 24]: 10
Ragweed plant response rating (0 to 100 scale) [5, 25]: 50
Plant response rating, Ryegrass, Italian [6, 24]: 50
Ryegrass, Italian plant response rating (0 to 100 scale) [6, 25]: 80
Plant response rating, Galium [7, 26]: 70
Plant response rating, Galium [7, 27]: 60
Plant response rating, Kochia (Kochia (Kochia scoparia) [8]; [26]): 70
Plant response rating, Kochia (Kochia (Kochia scoparia) [8]; [27]): 50
Plant response rating, Barnyardgrass [9, 26]: 90
Plant response rating, Barnyardgrass [9, 27]: 80
Plant response rating, Blackgrass [10, 26]: 70
Plant response rating, Blackgrass [10, 27]: 50
Plant response rating, Corn (corn (Zea mays); [26]): 80
Plant response rating, Corn (corn (Zea mays); [27]): 50
Plant response rating, Foxtail, Giant [11, 26]: 80
Plant response rating, Foxtail, Giant [11, 27]: 80
Plant response rating, Pigweed [12, 26]: 50
Plant response rating, Pigweed [12, 27]: 0
Plant response rating, Ragweed [13, 26]: 50
Plant response rating, Ragweed [13, 27]: 20
Plant response rating, Ryegrass, Italian [14, 26]: 70
Plant response rating, Ryegrass, Italian [14, 27]: 40
Plant response rating, Wheat [15, 26]: 50
Plant response rating, Wheat [15, 27]: 40
Plant response rating, Barnyardgrass [16, 28]: 70
Plant response rating, Ducksalad [17, 28]: 30
Plant response rating, Rice (rice (Oryra sativa); [28]): 0
Plant response rating, Sedge, Umbrella ([18]; 13 to 15 d): 0
